Test results taken from article PMC9739695, “Water-Soluble Salts Based on Benzofuroxan Derivatives—Synthesis and Biological Activity” (International Journal of Molecular Sciences, 2022).
Where two headings read alike, the source gives them in different places.

Columns and labels:
barley seeds = experiment: Pre-sowing seed treatment, sowing qualities of barley seeds; format: in vivo; conditions: for germination energy / laboratory germination: control 95.2
Experimental: (§1) When evaluating the effectiveness of treatment of wheat, alfalfa, barley, rice, and sorghum seeds as fungicidal and bactericidal agents with preparation compounds at concentrations of 10, 20, and 40 mmol, their effect on the suppression of seed infection was evaluated.
(§2) […] The sowing qualities were evaluated (germination energy for 3–4 days, laboratory germination for 7–8 days) according to GOST 12038-84 [60]. Sowing qualities of seeds were determined in wet chambers. According to the sample, 50 seeds were taken in 4-fold repetition.

Hep-2 (larynx carcinoma) = experiment: Cell viability, MTT test; format: cell-based; conditions: Homo sapiens, read-out: IC50 (concentration causing 50% inhibition of cell population growth)
Experimental: (§3) In this work, the cytotoxic potential of the water-soluble salts based on benzofuroxan was determined by the effect of compounds on the survival of the cell tumor origin cultures (SH-SY5Y, Hep2, A549, HeLa) using the MTT test. To understand how the synthesized compounds can influence the healthy microenvironment in the body, the effect of substances on the viability of a normal Hek 293 cell culture was additionally evaluated.
(§4) Human cell cultures of tumor origin—SH-SY5Y (neuroblastoma), HeLa (cervical tumor), Hep-2 (larynx carcinoma), A549 (adenocarcinomic human alveolar basal epithelial cells)—and normal cell line Hek 293 (human embryonic kidneys), provided by the Laboratory of Tumor Cell Genetics of the Scientific Research Institute of Carcinogenesis, N.N. Blokhin National Medical Research Center of Oncology, as well as the Institute of Cytology of the Russian Academy of Sciences, were grown in a nutrient medium DMEM (PanEco, Moscow, Russia) and MEM (PanEco, Moscow, Russia), containing fetal bovine serum (10% by volume) (ThermoFisher Scientific, Paisley, UK), Glutamax (2 mM) (Gibco, Scotland, UK), and penicillin-streptomycin (1% by volume) (PanEco, Moscow, Russia). The cultivation was carried out at 37 °C in a humidified CO2 atmosphere (5%).
(§5) Cell viability was determined by MTT test. Cells were seeded in a 96-well plate in the amount of 1 × 10^4 cells/200µLof complete nutrient medium and cultured at 37 °C in CO2 (5%). After 24 h of incubation, various concentrations of test compounds in the range from 0.1 to 100 μM, were added to the cell cultures, and then the cells were cultured under the same conditions for 24 and 72 h. For each concentration, the experiment was carried out in triplicate.
(§6) All compounds were dissolved in DMSO, then diluted with the medium to the required concentration. […] The DMSO was also added to the control wells in a volume of 1%. After the incubation time, MTT (3-(4,5-dimethylthiazol-2-yl)-2,5-diphenyltetrazolium bromide, 5 mg/mL) was added to each well and plates were additionally incubated for 2 h (until the characteristic color appeared).
(§7) Using a plate analyzer (Cytation3, BioTech Instruments Inc., Winooski, VT, USA), the optical density was determined at 530 nm. The concentration value causing 50% inhibition of cell population growth (IC50) was determined from dose-dependent curves.

[1] = tested on: A549 (adenocarcinomic human alveolar basal epithelial cells); experiment: Cell viability, MTT test; format: cell-based; conditions: read-out: IC50 (concentration causing 50% inhibition of cell population growth)
Experimental: as §3, §4, §5, §6, §7

HeLa (cervical tumor) = experiment: Cell viability, MTT test; format: cell-based; conditions: Homo sapiens, read-out: IC50 (concentration causing 50% inhibition of cell population growth)
Experimental: as §3, §4, §5, §6, §7

wheat seeds = experiment: Pre-sowing seed treatment, sowing qualities of wheat seeds; format: in vivo; conditions: for germination energy: control 82; for laboratory germination: control 85.7
Experimental: as §1, §2

BDF1 mice = experiment: Acute toxicity, single intraperitoneal administration; format: in vivo
Experimental: (§8) To determine LD50, a curve of increasing toxicity was built with increasing dose, based on which the following parameters were additionally determined: MTD, LD16, LD84 and LD100.
(§9) In the experiment, clinically healthy animals were used, which were kept in the same conditions with a 12-h light and free access to water and food. Each experimental group included six animals. […] Control animals received 0.9% NaCl solution. Animals were monitored continuously for 4 h on the first day after administration of the test compounds. […] Calculation of toxic doses was performed using probit analysis.

[2] = as above; format: in vivo; conditions: male, BDF1 [DBA2 × C57Bl6] hybrid, mouse, in vivo, ip, BDF1 mice, single intraperitoneal administration
Experimental: as §8, §9

rice seeds = experiment: Pre-sowing seed treatment, sowing qualities of rice seeds; format: in vivo; conditions: for germination energy: control 71.4; for laboratory germination: control 95.2
Experimental: as §1, §2

sorghum seeds = experiment: Pre-sowing seed treatment, sowing qualities of sorghum seeds; format: in vivo; conditions: for germination energy: control 52.3; for laboratory germination: control 57
Experimental: as §1, §2

[3] = single intraperitoneal administration, doses given in mg/kg, probit analysis

SMILES: O=[N+]([O-])c1c(Cl)cc2c(no[n+]2[O-])c1NCCCN1CCOCC1 [4e, 6-chloro-4-(3-(morpholino-4-ium)propylamino)-5-nitrobenzo[c][1,2,5]oxadiazole 1-oxide chloride]
- germination energy (barley seeds; 10 mmol): 85.7%
- laboratory germination (barley seeds; 10 mmol): 85.7%
- sowing qualities of seeds compared with control (barley seeds; 20 mmol): higher than control
- germination energy (barley seeds; 20 mmol): 96%
- laboratory germination (barley seeds; 20 mmol): 98%
- germination energy (barley seeds; 40 mmol): 94%
- laboratory germination (barley seeds; 40 mmol): 99%
- IC50 (Hep-2 (larynx carcinoma); HEp-2, 24 h): 83 ± 1.37 µM
- IC50 (Hep-2 (larynx carcinoma); HEp-2, 72 h): 70.21 ± 0.54 µM
- IC50 ([1]; A549, 24 h): 90.2 ± 3.43 µM
- IC50 ([1]; A549, 72 h): 77.1 ± 1.36 µM
- IC50 (HeLa (cervical tumor); 24 h): > 100 µM
- IC50 (HeLa (cervical tumor); 72 h): 93.8 ± 2.53 µM
- germination energy (wheat seeds; 10 mmol): 33.3%
- laboratory germination (wheat seeds; 10 mmol): 42.8%
- sowing qualities of seeds compared with control (wheat seeds; 20 mmol): higher than in the case of controls
- germination energy (wheat seeds; 20 mmol): 97%
- laboratory germination (wheat seeds; 20 mmol): 97.5%
- sowing qualities of seeds compared with control (wheat seeds; 40 mmol): higher than in the case of controls
- germination energy (wheat seeds; 40 mmol): 98%
- laboratory germination (wheat seeds; 40 mmol): 99%
- toxicity class from acute toxicity study (BDF1 mice; single i.p.): highly toxic
- Body Weight (BDF1 mice; single i.p. 10 mg/kg, 0 Day, control 21.55 ± 0.28): 20.25 ± 0.39 g
- Body Weight (BDF1 mice; single i.p. 10 mg/kg, 1 Day, control 21.43 ± 0.56): 20.39 ± 0.47 g
- Body Weight (BDF1 mice; single i.p. 10 mg/kg, 2 Days, control 21.67 ± 0.77): 20.51 ± 0.40 g
- Body Weight (BDF1 mice; single i.p. 10 mg/kg, 3 Days, control 21.99 ± 0.79): 20.88 ± 0.31 g
- Body Weight (BDF1 mice; single i.p. 10 mg/kg, 7 Days, control 22.80 ± 0.44): 21.58 ± 0.51 g
- Body Weight (BDF1 mice; single i.p. 10 mg/kg, 14 Days, control 23.96 ± 0.68): 22.12 ± 0.62 g
- Body Weight (BDF1 mice; single i.p. 15 mg/kg, 0 Day, control 21.55 ± 0.28): 21.48 ± 0.47 g
- Body Weight (BDF1 mice; single i.p. 15 mg/kg, 1 Day, control 21.43 ± 0.56): 21.45 ± 0.51 g
- Body Weight (BDF1 mice; single i.p. 15 mg/kg, 2 Days, control 21.67 ± 0.77): 21.56 ± 0.49 g
- Body Weight (BDF1 mice; single i.p. 15 mg/kg, 3 Days, control 21.99 ± 0.79): 21.62 ± 0.59 g
- Body Weight (BDF1 mice; single i.p. 15 mg/kg, 7 Days, control 22.80 ± 0.44): 22.02 ± 0.47 g
- Body Weight (BDF1 mice; single i.p. 15 mg/kg, 14 Days, control 23.96 ± 0.68): 22.66 ± 0.38 g
- Body Weight (BDF1 mice; single i.p. 20 mg/kg, 0 Day, control 21.55 ± 0.28): 21.45 ± 0.52 g
- Body Weight (BDF1 mice; single i.p. 20 mg/kg, 1 Day, control 21.43 ± 0.56): 21.44 ± 0.71 g
- Body Weight (BDF1 mice; single i.p. 20 mg/kg, 2 Days, control 21.67 ± 0.77): 21.88 ± 0.81 g
- Body Weight (BDF1 mice; single i.p. 20 mg/kg, 3 Days, control 21.99 ± 0.79): 22.02 ± 0.74 g
- Body Weight (BDF1 mice; single i.p. 20 mg/kg, 7 Days, control 22.80 ± 0.44): 22.74 ± 0.58 g
- Body Weight (BDF1 mice; single i.p. 20 mg/kg, 14 Days, control 23.96 ± 0.68): 23.01 ± 0.65 g
- Body Weight (BDF1 mice; single i.p. 25 mg/kg, 0 Day, control 21.55 ± 0.28): 22.27 ± 0.29 g
- Body Weight (BDF1 mice; single i.p. 25 mg/kg, 1 Day, control 21.43 ± 0.56): 21.98 g
- Body Weight (BDF1 mice; single i.p. 25 mg/kg, 2 Days, control 21.67 ± 0.77): 21.81 g
- Body Weight (BDF1 mice; single i.p. 25 mg/kg, 3 Days, control 21.99 ± 0.79): 21.89 g
- Body Weight (BDF1 mice; single i.p. 25 mg/kg, 7 Days, control 22.80 ± 0.44): 22.15 g
- Body Weight (BDF1 mice; single i.p. 25 mg/kg, 14 Days, control 23.96 ± 0.68): 22.74 g
- Body Weight (BDF1 mice; single i.p. 30 mg/kg, 0 Day, control 21.55 ± 0.28): 21.92 ± 0.13 g
- time after administration at which death of animals began (BDF1 mice; single i.p., doses of 15–30 mg/kg): 5 to 30 min
- LD100 (BDF1 mice; single intraperitoneal administration, doses given in mg/kg): 30
- LD16 (BDF1 mice; [3]): 18.2
- LD84 (BDF1 mice; [3]): 24.6
- MTD at 14 days ([2]; doses given in mg/kg): 10 mg/kg
- LD50 at 14 days ([2]; probit analysis): 22 ± 1.33 mg/kg
- germination energy (rice seeds; 10 mmol): 38%
- laboratory germination (rice seeds; 10 mmol): 38%
- sowing qualities of seeds compared with control (rice seeds; 20 mmol): better results than the control
- germination energy (rice seeds; 20 mmol): 98.5%
- laboratory germination (rice seeds; 20 mmol): 99%
- sowing qualities of seeds compared with control (rice seeds; 40 mmol): better results than the control
- germination energy (rice seeds; 40 mmol): 99%
- laboratory germination (rice seeds; 40 mmol): 99%
- germination energy (sorghum seeds; 10 mmol): 33.3%
- laboratory germination (sorghum seeds; 10 mmol): 63.3%
- germination energy (sorghum seeds; 20 mmol): 50.5%
- laboratory germination (sorghum seeds; 20 mmol): 56%
- germination energy (sorghum seeds; 40 mmol): 50.5%
- laboratory germination (sorghum seeds; 40 mmol): 52.5%
